Experiment [1] concerns Breast patient IX PDX tumors. As to the kind of experiment: Breast patient IX PDX model, combination with Dox. The class given is in vivo, nude mice.
The test system of experiment [2] is Breast patient VII PDX tumors. The experiment can be described thus: RNAseq gene expression profiles of PDX tumors after five i.v. treatments. It is filed as in vivo, nude mice. As for the experimental part:
ATFB was increased by HANP/GKT831 but decrease in GKT831 treated tumor.
Biomaterial low molecular weight HA generated nanoparticle drug carrier has unique biological activities compared with other nanoparticle drug carriers. […] To understand molecular mechanisms by which HANP/GKT831 enhanced responses to DNA damaging drug and radiation, gene expression profiles of the breast patient VII PDX tumors following five i.v. treatments were analyzed using RNAseq assay. […] Since human immune cells express NOX2 subtype, HANP/GKT831 treatment may not affect tumor immune responses but GKT831 treatment may decrease immune responses in tumors. Furthermore, HANP/GKT831 inhibited the expression of mitochondrial electron transport and ATP production genes, which promote tumor cell death (FIG. 7B). […] Therefore, it is likely that those differences in gene regulation contributed to a strong chemo- and radiotherapy enhancement effect of HANP/GKT831.

Experiment [3] concerns ROS generation in MCF-7 cells (NOX1/4 activity). As to the kind of experiment: ROS production in MCF-7 cells (DCFDA assay). It is filed as cell-based, human.
Experiment [4] deals with human breast cancer MCF-7 cells. The experiment can be described thus: Cell proliferation assay on MCF-7 cells. It is filed as cell-based. The conditions noted are these: MCF7, read-out: IC50, growth inhibition.
For experiment [5], the system named is Breast patient VII PDX tumors. As to the kind of experiment: Breast patient VII PDX model, combination with DOX. It is filed as in vivo, nude mice. As for the experimental part: Nude mice bearing orthotopic the Breast patient VII PDX tumors received 5 mg/kg equivalent dose of GKT831 or HANP/GKT831 combined with 5 mg/kg of DOX via the tail vein once a week for 5 administrations.
Therapy resistant breast cancer PDX models were established in nude mice from surgically resected tumor tissues of both hormonal receptor positive (HR+) and triple negative breast cancer patients. Patient VII PDX model was derived tumor from HR+ breast cancer tissue that progressed after neoadjuvant therapy with Dox+ Taxol and adjuvant radiotherapy (50 Gy). Patient IX PDX model was derived from a breast cancer tissue that was resistant to Dox/cyclophosphamide/Taxol therapy and 50 Gy of pre-operative radiation therapy. Both patients developed recurrent tumors and deceased 23 and 25 months after surgery. […] CD44 is the cellular receptor for HA and therefore, HANP can target to CD44+ tumor and stromal cells. […] The targeted delivery of near-infrared (NIR) 830 dye labeled HANPs in the breast cancer PDX models were examined using optical imaging and histological analysis. […] Accumulation of HANPs in the liver was further examined.
The inhibition of NOX1/4 on tumor growth and sensitization of therapeutic responses to a chemotherapy drug, DOX, were examined in the breast Patient VII and Patient IX PDX models growing in the mammary fat pad of nude mice.

Values joined by “and” are separate entries in the source; they are usually repeats but may differ in a detail not shown here. Equal values may be shown once. “Also recorded” adds a separate entry of the source.

We go through two compounds from patent US12377117B2, “Hyaluronic acid nanoparticles comprising NADPH oxidases inhibitors and uses in treating cancer” (priority 2019, dated 2025).

On to `CN(C)c1cccc(-c2c3c(=O)n(-c4ccccc4Cl)[nH]c3cc(=O)n2C)c1` [GKT831, 2-(2-chlorophenyl)-4-(3-(dimethylamino)phenyl)-5-methyl-1,2-dihydro-3H-pyrazolo[4,3-c]pyridine-3,6(5H)-dione], for which the “effect on tumor growth” value in experiment [1] is reported as “did not show a significant difference; also recorded: did not show any effect on tumor growth”. Also, in experiment [2] (PDX tumors (FIG. 7B)), the ATFB expression entry is “decrease”; the “expression of mitochondrial electron transport and ATP production genes” value was “increased MT-ND and MT-CO2 expression”. In addition, in experiment [2] (PDX tumors (FIG. 7B), listed as GKT 831), the “expression of mitochondrial electron transport and ATP production genes” value was “upregulated the expression of some of those genes”. For the same compound, in experiment [2] (patient VII PDX tumors), the NOX2 gene expression entry was “downregulated” and the “level of NOX4 gene expression” value is “did not significantly affect”. Also, the ROS generation entry in experiment [3] is given as “did not show obvious ROS reduction”. Moreover, the half-maximal inhibitory concentration (IC50) in experiment [4] was determined as 30 µM. Moreover, in experiment [5], the “anti-tumor effect / tumor growth inhibition” value is “did not show a significant difference”.
With `COc1cccc2c1C(=O)c1c(O)c3c(c(O)c1C2=O)C[C@@](O)(C(=O)CO)C[C@@H]3O[C@H]1C[C@H](N)[C@H](O)[C@H](C)O1` [DOX, doxorubicin], in experiment [5] (5 mg/kg i.v. weekly x5), the “increase in tumor volume compared the starting tumor volume” value was found to be 150%. Besides, the “tumor growth inhibition compared to no treatment control” value in experiment [5] (single agent treatment) was ~40% and 60%.

As a reminder, the IC50 is the concentration at which inhibition is half-maximal.
